Reference: patent US8563548B2, “Methylene furanone derivatives and use of said derivatives as a photoprotecting or antioxidant or depigmentation agent in cosmetic or dermatological compositions” (Pierre Fabre Dermo-Cosmetique, priority 2008, dated 2013)
“Also recorded” adds a separate entry of the source.

Test system: not listed separately
Test: UV absorption characteristics (photoprotecting capacity)
Type: physicochemical
Details: UV absorption
Excerpt: The methylene furanone derivatives of general formula (I) of the present invention were thus evaluated in order to determine their photoprotecting capacity by determination of their UV absorption characteristics: molar extinction coefficient ε, critical wavelength (λc) and UVA/UVB ratio.
By gathering all this information and by comparing the shape of the UV absorption spectra, these molecules can be classified in three categories: […]

molar extinction coefficient ε	SMILES
22,000 l.mol^−1.cm^−1	O=C1C=C(c2ccc3ccccc3c2)/C(=C/c2ccc3ccccc3c2)O1 [4c, (Z)-4-(2-naphthalene)-5-(2-naphthalenephenylmethylene)furan-2(5H)-one]

Same assay, conditions: UV absorption spectrum

UVA/UVB ratio (R)	critical wavelength (λc)	SMILES
1.9	–	O=C1C=C(c2ccsc2)/C(=C/c2ccsc2)O1 [4b, (Z)-4-(3-Thiophene)-5-(3-thiophenylmethylene)furan-2(5H)one]
3.2	–	O=C1C=C(c2ccc3ccccc3c2)/C(=C/c2ccc3ccccc3c2)O1 [4c, (Z)-4-(2-naphthalene)-5-(2-naphthalenephenylmethylene)furan-2(5H)-one]
–	367 nm	O=C1C=CC(=C(c2ccccc2)c2ccccc2)O1 [5a, 5-(Diphenylmethylene)furan-2(5H)-one]
–	355 nm	O=C1C=C(Br)/C(=C/c2ccsc2)O1 [6b, (Z)-4-Bromo-5-(thiophene-3-ylmethylene)furan-2-(5H)-one]

Same assay, conditions: UVA, UVB, long UVA (340-400 nm)

region of UV absorption / maximum absorption	SMILES
absorb in long UVA wavelengths	O=C1C=C(c2ccccc2)/C(=C/c2ccccc2)O1 [4a, (Z)-4-Phenyl-5-(phenylmethylene)furan-2(5H)-one]
maximum is in UVB	O=C1C=C(c2ccsc2)/C(=C/c2ccsc2)O1 [4b, (Z)-4-(3-Thiophene)-5-(3-thiophenylmethylene)furan-2(5H)one]
maximum is in UVB	O=C1C=C(c2ccc3ccccc3c2)/C(=C/c2ccc3ccccc3c2)O1 [4c, (Z)-4-(2-naphthalene)-5-(2-naphthalenephenylmethylene)furan-2(5H)-one]
absorb in long UVA wavelengths	O=C1C=C(c2ccccc2F)/C(=C/c2ccccc2F)O1 [4f, (Z)-4-(2-Fluorophenyl)-(Z)-5-(2-fluorophenylmethylene)furan-2(5H)-one]
absorb in long UVA wavelengths	O=C1C=CC(=C(c2ccc3ccccc3c2)c2ccc3ccccc3c2)O1 [5c, 5-(Dinaphthalene-2-ylmethylene)furan-2-(5H)-one]
absorb in long UVA wavelengths	O=C1C=C(Br)/C(=C/c2ccccc2)O1 [6a, (Z)-4-Bromo-5-(phenylmethylene)furan-2-(5H)-one]
absorb in long UVA wavelengths	O=C1C=C(c2ccsc2)/C(=C/c2ccccc2)O1 [8a, (Z)-5-(Phenylmethylene)-4-(thiophene-3-yl)furan-2-(5H)-one]
absorb in long UVA wavelengths	O=C1C=C(c2ccccc2)/C(=C/c2ccsc2)O1 [8b, 4-Phenyl-(Z)-5-(thiophene-3-ylmethylene)furan-2-(5H)-one]

Test system: not listed separately
Test: Photostability under Suntest irradiation (10 MED)
Type: physicochemical
Details: in solution in ethanol, irradiated with 10 MED, UV spectra before and after irradiation
Excerpt: For this study it was decided to irradiate samples, in powder form or in solution in ethanol, with 10 MED (minimal erythema dose: minimum amount of solar radiation causing the appearance of sunburn). The evaluation of degradation is estimated by the shape of the UV absorption spectra before and after irradiation.
Evaluation of Stability of Methylene Furanone Derivatives Irradiated in Suntest.

Photostability in solution	SMILES
moderately stable	COc1ccc(/C=C2\OC(=O)C=C2c2ccc(OC)c(OC)c2)cc1OC [4d]
stable	O=C1C=CC(=C(c2ccccc2)c2ccccc2)O1 [5a, 5-(Diphenylmethylene)furan-2(5H)-one]
stable	O=C1C=CC(=C(c2ccsc2)c2ccsc2)O1 [5b, 5-(Dithiophene-3-ylmethylene)furan-2-(5H)-one]
stable	COc1ccc(C(=C2C=CC(=O)O2)c2ccc(OC)c(OC)c2)cc1OC [5d, 5-(bis(3,4-Dimethoxyphenyl)methylene)furan-2-(5H)-one]
stable	CC(C)(C)OC(=O)Nc1ccc(C(=C2C=CC(=O)O2)c2ccc(NC(=O)OC(C)(C)C)cc2)cc1 [5e]
stable	O=C1C=CC(=C(c2ccccc2F)c2ccccc2F)O1 [5f, 5-bis((2-fluorophenyl)methylene)furan-2-(5H)-one]
stable	O=C1C=C/C(=C(\c2ccccc2)c2ccsc2)O1 [9a, (Z)-5-(phenylthiophene-3-ylmethylene)furan-2-(5H)-one]

Same assay, conditions: powder form, irradiated with 10 MED, UV spectra before and after irradiation

Photostability powder	SMILES
stable	COc1ccc(/C=C2\OC(=O)C=C2c2ccc(OC)c(OC)c2)cc1OC [4d]
stable	O=C1C=CC(=C(c2ccccc2)c2ccccc2)O1 [5a, 5-(Diphenylmethylene)furan-2(5H)-one]
stable	O=C1C=CC(=C(c2ccsc2)c2ccsc2)O1 [5b, 5-(Dithiophene-3-ylmethylene)furan-2-(5H)-one]
stable	CC(C)(C)OC(=O)Nc1ccc(C(=C2C=CC(=O)O2)c2ccc(NC(=O)OC(C)(C)C)cc2)cc1 [5e]
stable	O=C1C=CC(=C(c2ccccc2F)c2ccccc2F)O1 [5f, 5-bis((2-fluorophenyl)methylene)furan-2-(5H)-one]
stable	O=C1C=C/C(=C(\c2ccccc2)c2ccsc2)O1 [9a, (Z)-5-(phenylthiophene-3-ylmethylene)furan-2-(5H)-one]

SMILES	Photostability powder
COc1ccc(C(=C2C=CC(=O)O2)c2ccc(OC)c(OC)c2)cc1OC [5d, 5-(bis(3,4-Dimethoxyphenyl)methylene)furan-2-(5H)-one]	completely unstable; also recorded: not stable

Test system: not listed separately
Test: Antioxidant capacity by trapping the superoxide anion (photochemiluminescence with luminol)
Type: biochemical
Details: methylene furanone samples; sample needed for activity equivalent to 1 μg Trolox
Description: The antioxidant capacity of 10 molecules was measured by trapping the superoxide anion: 5d, 9a, 5b, 5a, 5e, 4d, 5f, 5g, 5h, 5j.
The method consists in generating free radicals by a photochemical signal. Oxidation intensity is 1000 times higher than that obtained in normal conditions.
Thus, the superoxide radical (O2—) is generated by a photochemical reaction: L+hv(UV)+O2→L*O2→L^++O2—
Detection is done by chemiluminescence. It enables the evaluation of water-soluble and fat-soluble antioxidant molecules or extracts.
Part of the superoxide anions are quenched by antioxidants. The remaining free radicals are quantified by chemiluminescence. L^++O2^−→N2+AP*^2−→AP^2−+hv (luminescence)
The results are expressed respectively in equivalent quantity of vitamin C or Trolox (6-hydroxy-2,5,7,8-tetramethylchroman-2-carboxylic acid). Sensitivity is on the order of a nanomole.
The analysis of the results depends on two criteria: shape of the curve and numerical value given by the software.

SMILES	ACL μg of sample for 1 μg of Trolox
COc1ccc(/C=C2\OC(=O)C=C2c2ccc(OC)c(OC)c2)cc1OC [4d]	50.2 µg
O=C1C=CC(=C(c2ccccc2)c2ccccc2)O1 [5a, 5-(Diphenylmethylene)furan-2(5H)-one]	43.0 µg
O=C1C=CC(=C(c2ccsc2)c2ccsc2)O1 [5b, 5-(Dithiophene-3-ylmethylene)furan-2-(5H)-one]	28.0 µg
COc1ccc(C(=C2C=CC(=O)O2)c2ccc(OC)c(OC)c2)cc1OC [5d, 5-(bis(3,4-Dimethoxyphenyl)methylene)furan-2-(5H)-one]	12.7 µg
CC(C)(C)OC(=O)Nc1ccc(C(=C2C=CC(=O)O2)c2ccc(NC(=O)OC(C)(C)C)cc2)cc1 [5e]	46.3 µg
O=C1C=CC(=C(c2ccccc2F)c2ccccc2F)O1 [5f, 5-bis((2-fluorophenyl)methylene)furan-2-(5H)-one]	88.3 µg
O=C1C=CC(=C(c2ccc(O)c(O)c2)c2ccc(O)c(O)c2)O1 [5g, 5-(bis(3,4-dihydroxyphenyl)methylene)furan-2-(5H)-one]	0.03 µg
COc1cc(C(=C2C=CC(=O)O2)c2cc(OC)c(OC)c(OC)c2)cc(OC)c1OC [5h, 5-(bis(3,4,5-trimethoxyphenyl)methylene)furan-2-(5H)-one]	30 µg
O=C1C=CC(=C(c2cc(O)c(O)c(O)c2)c2cc(O)c(O)c(O)c2)O1 [5i, 5-(bis(3,4,5-Trihydroxyphenyl)methylene)furan-2-(5H)-one]	1.5 µg
O=C1C=C/C(=C(\c2ccccc2)c2ccsc2)O1 [9a, (Z)-5-(phenylthiophene-3-ylmethylene)furan-2-(5H)-one]	21.6 µg

Same assay, conditions: reference products; sample needed for activity equivalent to 1 μg Trolox

SMILES	μg of sample for 1 μg of Trolox
O=C(O)CCCC[C@@H]1CCSS1 (racemic) [Lipoic acid, reference compound]	NEGATIVE
COc1ccc(O)c(C(C)(C)C)c1 [Butylhydroxyanisole, reference compound]	2.650 µg
N[C@@H](CS)C(=O)O [Cysteine, reference compound]	698 µg
COC1=C(OC)C(=O)C(CCCCCCCCCCO)=C(C)C1=O [Idebenone, reference compound]	10.10 µg
Cc1c(C)c2c(c(C)c1O)CCC(C)(C(=O)O)O2 (stereo not drawn) [Trolox, 6-hydroxy-2,5,7,8-tetramethylchroman-2-carboxylic acid, reference compound]	1.067 µg
O=C1O[C@H]([C@@H](O)CO)C(O)=C1O [Vitamin C, ascorbic acid, reference compound]	0.451 µg
CC(=O)Oc1c(C)c(C)c2c(c1C)CCC(C)(CCC[C@H](C)CCC[C@H](C)CCCC(C)C)O2 (stereo partly drawn) [α-tocopherol-acetate, reference compound]	140 µg

Test system: Tyrosinase
Test: Tyrosinase monophenol monooxygenase (MPMO) inhibition test
Type: biochemical
Parameters: concentration or dose not given beside the values
Details: for a 50 quantity; substrate L-tyrosine, compared to maximum activity without inhibitor
Description: Tyrosinase is a limiting enzyme in melanogenesis. It belongs to the family of oxidoreductases. […] It is synthesised in melanocytes. It is activated during its migration towards keratinocytes via melanosomes. It transforms tyrosine into DOPA and then dopaquinone, which eventually leads to polymerization and pigment production.
The monophenol monooxygenase function is measured in this test. Tyrosinase activity (MPMO in the strict sense) is measured.
The substrate: L-tyrosine is transformed into L-DOPA. The enzymatic reaction is stopped at this stage. The DOPA produced is determined by an external calibration (0.005 mM to 0.1 mM). The final result is a percentage of inhibition compared to maximum activity without inhibitor or extract.

inhibition of MPMO enzyme activity	SMILES
65.93%	O=C1C=CC(=C(c2ccc(O)c(O)c2)c2ccc(O)c(O)c2)O1 [5g, 5-(bis(3,4-dihydroxyphenyl)methylene)furan-2-(5H)-one]
